# Legend:
# [1] = test system: established ovarian cancer cell lines (OVCAR4, OVCAR8, OVASHO, TYKNU, Kuramachi); assay: Spheroid formation in low adherent surface culture; type: cell-based; settings: same treatment doses as JSI-124
# Experimental: FIG. 6A-FIG. 6G are a series of graphs and images depicting the impact of JAK/STAT-inhibition on spheroid formation, invasion and killing ex vivo and in vitro. FIG. 6A a histogram (FIG. 11B), showing drug screening with 14 compounds (at 1 μM) inhibiting the JAK/STAT pathway in OVACR4. Relative viability compared to DMSO control measured by CTG. […] The same library was screened in 2D-cultures of OVACR4 (FIG. 11A), and 2D-cultures of OVACR8 (FIG. 11C) and 3D-cultures of OVACR8 (FIG. 11D). FIG. 6B is a series of plots showing drug sensitivity testing using the GILA assay in platinum-resistant ex vivo spheroid cultures of patients DF3291 and DF3266, The X-axis indicates the log μM concentration of drugs indicated in the legend, Y-axis indicates the percentage of luminescence signal as indicator for viability relatively to DMSO treated cells. In both patients, half maximal effective concentration (EC50) were ˜100 nM and ˜10 nM, respectively, while other drugs routinely used for the treatment of (platinum-resistant) ovarian cancer had EC50>10 μM. FIG. 6C is a series of images of microscopic analysis of spheroids with different drug treatments to highlight the morphologic changes during therapy with drugs listed. Inhibition of JAK/STAT pathway disrupts ex vivo spheroid cultures. […] The X-axis indicates established ovarian cancer cell line ID. Y-axis indicates the relative number of formed spheroids when treated with either JSI-124 or carboplatin compared to untreated parental controls. Error bars indicate the standard deviation from the mean number of spheroids. […] JAK/STAT inhibition prevents spheroid formation. […] The Y-axis indicates the clearance ability (using arbitrary units). 20 spheroids clusters were analyzed for each iteration. Data is shown as mean (horizontal bar), interquartile range (box), and minimum and maximum (whiskers). Statistical analysis was performed using 1-way analysis of variance (ANOVA) and post hoc Tukey-Kramer **P<0.05. […] FIG. 6G is a histogram showing the inhibition of the JAK/STAT pathway. […]
# [2] = test system: platinum-resistant ex vivo spheroid cultures of patients DF3266, DF3288, DF3291; assay: Drug sensitivity testing with the growth in low attachment (GILA) assay; type: cell-based; settings: for Sensitivity of spheroid cultures: all spheroid cultures, similar dose range, cisplatin excepted in DF3266 and DF3288
# Experimental: FIG. 6A-FIG. 6G are a series of graphs and images depicting the impact of JAK/STAT-inhibition on spheroid formation, invasion and killing ex vivo and in vitro. FIG. 6A a histogram (FIG. 11B), showing drug screening with 14 compounds (at 1 μM) inhibiting the JAK/STAT pathway in OVACR4. Relative viability compared to DMSO control measured by CTG. […] The same library was screened in 2D-cultures of OVACR4 (FIG. 11A), and 2D-cultures of OVACR8 (FIG. 11C) and 3D-cultures of OVACR8 (FIG. 11D). FIG. 6B is a series of plots showing drug sensitivity testing using the GILA assay in platinum-resistant ex vivo spheroid cultures of patients DF3291 and DF3266, The X-axis indicates the log μM concentration of drugs indicated in the legend, Y-axis indicates the percentage of luminescence signal as indicator for viability relatively to DMSO treated cells. In both patients, half maximal effective concentration (EC50) were ˜100 nM and ˜10 nM, respectively, while other drugs routinely used for the treatment of (platinum-resistant) ovarian cancer had EC50>10 μM. FIG. 6C is a series of images of microscopic analysis of spheroids with different drug treatments to highlight the morphologic changes during therapy with drugs listed. Inhibition of JAK/STAT pathway disrupts ex vivo spheroid cultures. […] The X-axis indicates established ovarian cancer cell line ID. Y-axis indicates the relative number of formed spheroids when treated with either JSI-124 or carboplatin compared to untreated parental controls. Error bars indicate the standard deviation from the mean number of spheroids. […] JAK/STAT inhibition prevents spheroid formation. […] The Y-axis indicates the clearance ability (using arbitrary units). 20 spheroids clusters were analyzed for each iteration. Data is shown as mean (horizontal bar), interquartile range (box), and minimum and maximum (whiskers). Statistical analysis was performed using 1-way analysis of variance (ANOVA) and post hoc Tukey-Kramer **P<0.05. […] FIG. 6G is a histogram showing the inhibition of the JAK/STAT pathway.
# Single-cell RNA-sequencing was performed on these platinum-resistant patient samples, using the growth in low attachment (GILA) assay (Rotem et al., 2015 Proc. Natl. Acad. Sci. U.S.A, 112:5708-5713; B. Izar and A. Rotem, 2016 Curr. Protoc. Mol. Biol., 116:28.8.1-28.8.12). […] In contrast, all spheroid cultures were resistant to carboplatin, cisplatin, olaparib and paclitaxel at a similar dose range, with the exception of cisplatin with an EC50 of ˜10 μM in patients DF3266 and DF3288.
# [3] = test system: PDX models DF20, DF68, DF101; assay: Carboplatin treatment of ovarian cancer PDX models, tumor volume and BLI; type: in vivo, mice; settings: followed by subsequent tumor outgrowth
# Experimental: FIG. 4A-FIG. 4E are a series of graphs depicting comparisons of expression profiles across patient-derived xenograft (PDX) models before and after recurrence. […] FIG. 4A is a plot of tumor burden of PDX model DF20. PDX model DF20 response to carboplatin was assessed. Triangles indicate vehicle mice, squares indicate relapsed mice, and asterisks indicates MRD animals. MRD and relapsed tumors were treated with three cycles of carboplatin and harvested for single-cell RNA-sequencing at the last indicated time point in this graph. FIG. 4B is a heatmap showing the similarities and clustering of average expression profiles for each of the samples corresponding to three PDX models, with samples collected before treatments (vehicle), MRD and full relapse for each of the models. FIG. 4C is a plot of expression of highly-abundant transcripts in single-cells indicate disproportionally high expression of key nodes of the JAK/STAT pathway, including STAT2 and STAT3, and others.
# Next, platinum-resistance was modeled using PDX-models. […] Single-cells were harvested for sequencing from untreated animals (vehicle) and the carboplatin-treated animals were monitored for tumor regression and relapse. […] Accordingly, gene sets were detected which were consistently altered across two or three samples of MRD (FIG. 4D) or relapse (FIG. 4E), and contribute to drug resistance or tumor relapse. […]
Compound,Effect on spheroids formation [1],Sensitivity of spheroid cultures [2],"Tumor response (tumor volume, BLI signal) [3]","EC50 ([2]; patients DF3266 and DF3288, read-out: EC50)"
N.N.O=C([O-])C1(C(=O)[O-])CCC1.[Pt+2] [carboplatin],modest to no effects,resistant,brisk response,
N.N.[Cl][Pt][Cl] [cisplatin],,resistant,,~10 µM
O=C(c1cc(Cc2n[nH]c(=O)c3ccccc23)ccc1F)N1CCN(C(=O)C2CC2)CC1 [olaparib],,resistant,,
CC(=O)O[C@H]1C(=O)[C@@]2(C)[C@H]([C@H](OC(=O)c3ccccc3)[C@]3(O)C[C@H](OC(=O)[C@H](O)[C@@H](NC(=O)c4ccccc4)c4ccccc4)C(C)=C1C3(C)C)[C@]1(OC(C)=O)CO[C@@H]1C[C@@H]2O [paclitaxel],,resistant,,

# From patent US11963966B2, “Compositions and methods for treating ovarian tumors” (Dana-Farber Cancer Institute, Inc., priority 2017, dated 2024)
